14 molecules from ChEMBL document CHEMBL1201862, “PubChem BioAssay data set” (2004) can be followed below.

Activity calls are given as the source filed them.

In assay [1] the target is Melanin-concentrating hormone receptor 1 (Homo sapiens, UniProt Q99705). The assay can be described thus: Late-stage fluorescence-based counterscreen for antagonists of the G-protein coupled receptor 7 (GPR7): cell-based dose response assay to identify antagonists of the melanin-concentrating hormone receptor 1 (MCHR1). [Related pubchem assays (depositor defined):AID1861, AID1880, AID1952, AID2148, AID2251, AID2257, AID485339]. The format is functional.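 Further: stimulated with 30 nM MCH peptide agonist.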
Sequence of Melanin-concentrating hormone receptor 1 (Q99705 whole entry): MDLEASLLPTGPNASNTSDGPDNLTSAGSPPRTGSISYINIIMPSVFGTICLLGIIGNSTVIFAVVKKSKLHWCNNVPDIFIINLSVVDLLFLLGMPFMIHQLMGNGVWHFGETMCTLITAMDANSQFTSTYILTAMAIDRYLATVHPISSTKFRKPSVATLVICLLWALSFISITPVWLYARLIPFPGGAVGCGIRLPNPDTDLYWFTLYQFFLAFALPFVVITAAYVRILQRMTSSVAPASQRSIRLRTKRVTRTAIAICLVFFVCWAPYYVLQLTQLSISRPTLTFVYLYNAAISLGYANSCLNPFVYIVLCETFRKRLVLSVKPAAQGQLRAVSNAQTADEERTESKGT

Assay [2] has as its target T1, Neuropeptides B/W receptor type 1 (Homo sapiens, UniProt P48145).
T1 sequence (P48145 whole entry): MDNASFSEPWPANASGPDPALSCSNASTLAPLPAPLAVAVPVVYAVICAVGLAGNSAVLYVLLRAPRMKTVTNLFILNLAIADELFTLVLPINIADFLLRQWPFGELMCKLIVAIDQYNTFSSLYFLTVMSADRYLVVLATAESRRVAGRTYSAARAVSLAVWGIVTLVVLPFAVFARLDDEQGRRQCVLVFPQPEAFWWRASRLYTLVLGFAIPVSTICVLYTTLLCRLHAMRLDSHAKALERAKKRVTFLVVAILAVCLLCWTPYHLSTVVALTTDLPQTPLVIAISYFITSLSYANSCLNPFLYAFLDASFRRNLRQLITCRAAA
The assay can be described thus: human NPBW1 receptor blockade, IC50 – cell-based, fluorescence, dose response, late-stage follow-up (AID 463251). It is filed as functional.

The target of the next assay is T2, Coagulation factor XII (Homo sapiens, UniProt P00748).
T2 sequence (P00748 whole entry): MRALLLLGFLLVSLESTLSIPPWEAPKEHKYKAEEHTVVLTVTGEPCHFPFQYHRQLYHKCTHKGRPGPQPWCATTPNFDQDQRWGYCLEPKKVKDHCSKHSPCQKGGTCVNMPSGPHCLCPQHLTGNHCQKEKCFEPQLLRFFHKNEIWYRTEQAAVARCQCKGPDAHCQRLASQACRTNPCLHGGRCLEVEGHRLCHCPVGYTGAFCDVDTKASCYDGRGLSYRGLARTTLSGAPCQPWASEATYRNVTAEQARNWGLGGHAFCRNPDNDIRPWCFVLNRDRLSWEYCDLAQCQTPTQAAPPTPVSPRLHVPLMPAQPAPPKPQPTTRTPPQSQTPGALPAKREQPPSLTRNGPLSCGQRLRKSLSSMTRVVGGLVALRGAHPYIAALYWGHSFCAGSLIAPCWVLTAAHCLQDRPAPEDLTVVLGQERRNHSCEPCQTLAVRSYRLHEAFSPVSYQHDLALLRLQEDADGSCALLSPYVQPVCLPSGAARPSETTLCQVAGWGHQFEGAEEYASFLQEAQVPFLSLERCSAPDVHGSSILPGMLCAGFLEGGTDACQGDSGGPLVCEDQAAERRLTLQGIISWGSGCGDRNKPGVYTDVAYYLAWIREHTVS
The assay can be described thus: activated coagulation factor XII inhibitor potency, concentration-effect curve, cell-free (AID 716). It is filed as functional.

For assay [3], the target named is NACHT, LRR and PYD domains-containing protein 3 (Homo sapiens, UniProt Q96P20). The assay can be described thus: NALP3 inhibitors in yeast, dose response, luminescent (AID 488799). It is filed as functional.
The target in assay [4] is T3, Serine/threonine-protein phosphatase (Candida dubliniensis (strain CD36 / CBS 7987 / NCPF 3949 / NRRLY-17841) (Yeast), UniProt B9W6M3).
T3 sequence (B9W6M3 whole entry): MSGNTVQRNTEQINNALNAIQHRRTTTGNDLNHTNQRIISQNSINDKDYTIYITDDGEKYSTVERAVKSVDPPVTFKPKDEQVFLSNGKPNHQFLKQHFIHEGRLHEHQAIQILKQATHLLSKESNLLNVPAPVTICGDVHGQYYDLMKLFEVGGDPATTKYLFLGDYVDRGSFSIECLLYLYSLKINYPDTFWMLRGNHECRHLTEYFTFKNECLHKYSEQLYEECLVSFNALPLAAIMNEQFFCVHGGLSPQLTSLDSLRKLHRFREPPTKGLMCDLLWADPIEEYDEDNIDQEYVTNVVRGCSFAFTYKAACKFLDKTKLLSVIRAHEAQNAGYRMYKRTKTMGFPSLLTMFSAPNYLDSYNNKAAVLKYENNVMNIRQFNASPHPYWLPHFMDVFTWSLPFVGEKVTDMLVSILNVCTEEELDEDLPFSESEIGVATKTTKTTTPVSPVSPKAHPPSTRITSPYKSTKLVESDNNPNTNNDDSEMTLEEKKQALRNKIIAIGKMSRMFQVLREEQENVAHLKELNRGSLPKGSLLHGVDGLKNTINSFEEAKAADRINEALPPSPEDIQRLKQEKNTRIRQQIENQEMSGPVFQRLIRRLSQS
The assay can be described thus: blockers of CaCl2-induced CDRE-lacZ signaling – S. cerevisiae, luminescence, secondary, dose response (AID 2388).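 Further: yeast reporter cells carrying a calcineurin-responsive lacZ construct stimulated with calcium chloride; luminescent beta-galactosidase reporter signal in whole cells rather than isolated phosphatase activity; potency for inhibition where a drop in reporter signal means calcineurin blockade.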 It is filed as functional, cell-based.

Assay [5] is described as follows: NIH-3T3 fibroblast cytotoxicity, dose response, cytotoxicity control, cell-based, fluorescence, Alamar Blue, secondary assay (AID 2327).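 Further: NIH-3T3 mouse fibroblasts cultured with fluconazole at 8 µg/mL.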 It is filed as functional.
The target in assay [6] is ATP-dependent molecular chaperone HSP82 (Candida albicans (strain WO-1) (Yeast), UniProt C4YTQ8). The assay can be described thus: steroid-induced GRE reporter decrease in yeast – S. cerevisiae, luminescence, Hsp90 inhibitor project, dose response (AID 2400).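 Further: beta-galactosidase luminescence from glucocorticoid response element reporter as proxy for Hsp90 function; inhibitor potency where signal loss means Hsp90 inhibition.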 It is filed as functional, cell-based.
Sequence of ATP-dependent molecular chaperone HSP82 (C4YTQ8 whole entry): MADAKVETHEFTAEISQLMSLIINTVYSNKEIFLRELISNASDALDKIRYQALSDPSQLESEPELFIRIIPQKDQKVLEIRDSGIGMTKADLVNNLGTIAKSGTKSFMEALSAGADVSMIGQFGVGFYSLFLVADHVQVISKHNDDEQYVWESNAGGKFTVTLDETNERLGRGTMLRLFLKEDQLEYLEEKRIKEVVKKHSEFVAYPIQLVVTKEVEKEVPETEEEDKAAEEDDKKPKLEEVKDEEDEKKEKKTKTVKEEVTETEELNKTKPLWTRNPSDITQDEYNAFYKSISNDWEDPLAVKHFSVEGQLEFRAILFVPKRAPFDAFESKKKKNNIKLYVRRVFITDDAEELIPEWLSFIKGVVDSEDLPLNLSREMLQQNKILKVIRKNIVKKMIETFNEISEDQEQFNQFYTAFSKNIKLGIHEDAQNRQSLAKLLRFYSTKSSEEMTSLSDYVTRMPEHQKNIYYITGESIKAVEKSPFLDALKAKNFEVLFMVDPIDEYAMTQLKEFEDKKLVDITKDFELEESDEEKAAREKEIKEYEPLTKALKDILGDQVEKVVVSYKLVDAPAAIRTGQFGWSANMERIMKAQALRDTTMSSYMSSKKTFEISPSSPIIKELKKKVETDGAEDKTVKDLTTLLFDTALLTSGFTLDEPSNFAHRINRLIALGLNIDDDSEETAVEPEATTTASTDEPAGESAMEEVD
Assay [7] can be described thus: fluconazole-exposed Candida albicans growth modulators – fluorescence, retest, confirmation (AID 2467). It is filed as functional, cell-based.
A short description of assay [8]: Cytotoxicity screening for potential Inhibitors of Bacterial Capsule Biogenesis. [Related pubchem assays (depositor defined):AID488970]. It is filed as functional.
The target in assay [9] is T4, Voltage-gated N-type calcium channel alpha-1B subunit/Amyloid beta A4 precursor protein-binding family A member 1 (Homo sapiens, UniProt Q00975+Q02410). The assay can be described thus: disruptors of Mint-PDZ/N-type channel peptide interaction – biochemical, HTRF, SAR follow-up (AID 2489). The format is functional.
T4 sequence (Q00975 whole entry): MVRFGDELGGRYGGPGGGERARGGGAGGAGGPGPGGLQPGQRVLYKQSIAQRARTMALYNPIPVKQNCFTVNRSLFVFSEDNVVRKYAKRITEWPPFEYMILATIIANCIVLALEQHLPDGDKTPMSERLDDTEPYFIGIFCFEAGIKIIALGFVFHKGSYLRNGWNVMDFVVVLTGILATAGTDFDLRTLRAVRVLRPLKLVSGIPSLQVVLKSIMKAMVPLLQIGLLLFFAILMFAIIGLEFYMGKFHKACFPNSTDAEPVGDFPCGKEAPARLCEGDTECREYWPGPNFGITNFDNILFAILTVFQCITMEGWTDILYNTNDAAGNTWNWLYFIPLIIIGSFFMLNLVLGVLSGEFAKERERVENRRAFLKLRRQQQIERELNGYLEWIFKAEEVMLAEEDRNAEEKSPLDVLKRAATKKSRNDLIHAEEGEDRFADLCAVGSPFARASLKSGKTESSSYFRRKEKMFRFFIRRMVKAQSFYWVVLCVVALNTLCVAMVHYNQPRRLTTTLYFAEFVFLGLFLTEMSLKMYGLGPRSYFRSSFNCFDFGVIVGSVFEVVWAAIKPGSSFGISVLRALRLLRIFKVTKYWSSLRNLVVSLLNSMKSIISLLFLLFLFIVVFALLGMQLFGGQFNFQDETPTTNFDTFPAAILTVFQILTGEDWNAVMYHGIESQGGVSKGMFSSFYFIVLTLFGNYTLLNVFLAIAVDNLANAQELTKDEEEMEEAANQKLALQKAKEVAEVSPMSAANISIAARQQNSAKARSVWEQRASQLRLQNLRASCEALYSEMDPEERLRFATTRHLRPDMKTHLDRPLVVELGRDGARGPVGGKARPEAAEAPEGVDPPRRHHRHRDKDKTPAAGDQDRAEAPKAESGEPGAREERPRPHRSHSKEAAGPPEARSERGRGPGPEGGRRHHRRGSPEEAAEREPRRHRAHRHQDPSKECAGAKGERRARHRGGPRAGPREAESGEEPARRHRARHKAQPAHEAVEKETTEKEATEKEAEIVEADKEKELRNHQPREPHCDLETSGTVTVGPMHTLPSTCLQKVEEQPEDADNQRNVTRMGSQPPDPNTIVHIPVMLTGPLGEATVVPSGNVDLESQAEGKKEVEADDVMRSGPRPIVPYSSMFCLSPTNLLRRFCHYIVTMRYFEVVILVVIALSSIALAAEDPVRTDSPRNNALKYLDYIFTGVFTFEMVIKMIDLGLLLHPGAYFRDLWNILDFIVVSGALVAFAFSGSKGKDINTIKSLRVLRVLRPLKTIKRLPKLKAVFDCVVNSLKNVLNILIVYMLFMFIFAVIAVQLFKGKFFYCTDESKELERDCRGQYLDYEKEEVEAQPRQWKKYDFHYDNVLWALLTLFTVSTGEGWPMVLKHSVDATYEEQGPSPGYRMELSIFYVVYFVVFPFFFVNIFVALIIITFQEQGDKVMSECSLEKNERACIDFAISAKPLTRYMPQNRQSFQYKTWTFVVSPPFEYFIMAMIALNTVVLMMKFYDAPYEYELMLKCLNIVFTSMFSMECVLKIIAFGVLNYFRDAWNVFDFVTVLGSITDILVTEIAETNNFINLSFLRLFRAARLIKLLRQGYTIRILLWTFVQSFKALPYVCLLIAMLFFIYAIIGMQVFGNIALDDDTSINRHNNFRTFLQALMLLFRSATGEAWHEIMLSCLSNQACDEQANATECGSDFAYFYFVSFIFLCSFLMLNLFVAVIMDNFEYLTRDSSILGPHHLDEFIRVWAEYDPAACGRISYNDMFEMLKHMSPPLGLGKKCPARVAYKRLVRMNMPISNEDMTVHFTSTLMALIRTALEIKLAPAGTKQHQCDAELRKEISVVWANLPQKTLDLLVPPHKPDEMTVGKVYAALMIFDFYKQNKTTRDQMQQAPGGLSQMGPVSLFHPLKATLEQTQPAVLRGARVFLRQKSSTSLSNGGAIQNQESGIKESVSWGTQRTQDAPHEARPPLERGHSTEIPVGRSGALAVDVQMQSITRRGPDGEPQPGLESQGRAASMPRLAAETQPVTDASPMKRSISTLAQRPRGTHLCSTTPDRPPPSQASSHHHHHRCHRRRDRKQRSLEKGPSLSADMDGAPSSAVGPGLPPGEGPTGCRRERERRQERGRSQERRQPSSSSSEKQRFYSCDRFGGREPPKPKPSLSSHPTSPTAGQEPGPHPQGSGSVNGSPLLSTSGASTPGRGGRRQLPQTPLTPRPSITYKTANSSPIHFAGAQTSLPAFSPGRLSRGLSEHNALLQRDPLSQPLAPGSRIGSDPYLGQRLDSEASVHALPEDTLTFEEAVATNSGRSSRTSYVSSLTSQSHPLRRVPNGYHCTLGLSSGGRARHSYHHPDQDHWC
T4 sequence (Q02410 whole entry): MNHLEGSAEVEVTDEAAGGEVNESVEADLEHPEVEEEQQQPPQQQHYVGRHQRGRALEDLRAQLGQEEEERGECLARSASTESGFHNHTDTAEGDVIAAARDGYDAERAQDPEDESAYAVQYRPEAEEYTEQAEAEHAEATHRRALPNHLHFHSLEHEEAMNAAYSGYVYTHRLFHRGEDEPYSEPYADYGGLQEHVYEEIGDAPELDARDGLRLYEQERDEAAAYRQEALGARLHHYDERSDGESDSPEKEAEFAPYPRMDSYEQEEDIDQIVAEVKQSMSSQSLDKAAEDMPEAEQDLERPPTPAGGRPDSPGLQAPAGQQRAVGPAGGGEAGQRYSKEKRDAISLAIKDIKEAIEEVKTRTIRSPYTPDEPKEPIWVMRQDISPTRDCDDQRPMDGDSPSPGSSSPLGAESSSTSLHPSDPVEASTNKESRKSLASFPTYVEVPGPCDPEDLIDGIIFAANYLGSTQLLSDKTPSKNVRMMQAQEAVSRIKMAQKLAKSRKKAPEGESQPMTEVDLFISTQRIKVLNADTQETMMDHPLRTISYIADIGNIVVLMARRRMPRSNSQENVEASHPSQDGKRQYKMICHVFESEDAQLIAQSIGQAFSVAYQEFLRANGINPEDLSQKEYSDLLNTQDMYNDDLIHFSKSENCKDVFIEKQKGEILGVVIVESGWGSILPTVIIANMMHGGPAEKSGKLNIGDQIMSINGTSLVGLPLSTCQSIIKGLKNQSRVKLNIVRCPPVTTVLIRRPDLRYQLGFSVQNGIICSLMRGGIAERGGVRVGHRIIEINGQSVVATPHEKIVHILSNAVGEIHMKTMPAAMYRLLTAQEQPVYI
The target of assay [10] is T4, Voltage-gated N-type calcium channel alpha-1B subunit/Amyloid beta A4 precursor protein-binding family A member 1. The assay can be described thus: disruptors of Mint-PDZ/N-type channel peptide interaction – biochemical, HTRF, set 2, SAR follow-up (AID 434980). The format is functional.
Assay [11] concerns the target Potassium voltage-gated channel subfamily KQT member 2 (Rattus norvegicus, UniProt O88943). The assay can be described thus: potentiation of rat KCNQ2 current – cell-based, retigabine-insensitive compounds, dose response (AID 2654). It is filed as functional.
The target of another assay is Perilipin-1/ABHD5 (Homo sapiens, UniProt O60240+Q8WTS1). The assay can be described thus: Luminescence-based biochemical high throughput dose response assay for inhibitors of the interaction of the lipase co-activator protein, abhydrolase domain containing 5 (ABHD5) with perilipin-1 (PLIN1) (2K validation set). [Related pubchem assays (depositor defined):AID493027, AID493057].

The target of assay [12] is Heat shock protein HSP 90-alpha (Homo sapiens, UniProt P07900). It is filed as functional, organism-based.
Assay [13] has as its target 1-acylglycerol-3-phosphate O-acyltransferase ABHD5/Perilipin-5 (Homo sapiens, UniProt Q00G26+Q8WTS1). The assay can be described thus: Luminescence-based biochemical high throughput dose response assay for inhibitors of the interaction of the lipase co-activator protein, abhydrolase domain containing 5 (ABHD5) with perilipin-5 (MLDP; PLIN5) (2K validation set). [Related pubchem assays (depositor defined):AID493035, AID493241].

Assay [14] is described as follows: HepG2 cell cytotoxicity, dose response, cytotoxicity control for non-replicating M. tuberculosis project (AID 489018). It is filed as functional. The note with it: Mycobacterium tuberculosis.
Another assay can be described thus: cells. The format is functional.
The nature of assay [15]: Vero E6 cell cytotoxicity, dose response, cytotoxicity control for non-replicating M. tuberculosis project, secondary assay (AID 492998). The format is functional, VeroE6. To be noted: Vero C1008.
A short description of assay [16]: THP-1 cell cytotoxicity, dose response, cytotoxicity control for non-replicating M. tuberculosis project (AID 489025). The format is functional.
Assay [17] is described as follows: protection from phage-mediated lysis, alamar blue read-out – E. coli UTI89, K1F phage, bacterial capsule biogenesis inhibitors (AID 488966). The format is functional.
A further assay has as its system Trypanosoma cruzi. The assay can be described thus: anti-trypanosomal activity in host cells – cell-based, plate reader, dry powder, set 3, dose response (AID 493197). It is filed as functional.
The nature of assay [18]: NIH/3T3 cell viability loss – mouse embryonic fibroblasts, dry powder, set 2, cytotoxicity control, dose response (AID 493247). The note with it: Fibroblast. It is filed as functional, cell-based.
The target in assay [19] is Eukaryotic translation initiation factor 4E (Mus musculus, UniProt P63073). The assay can be described thus: blockers of eIF4G binding by eIF4E – biochemical, TR-FRET, dose response (AID 855).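 Further: potency for disrupting eIF4E binding to eIF4GI seen as loss of FRET.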 It is filed as functional.
The target of assay [20] is Voltage-dependent T-type calcium channel subunit alpha-1H (Homo sapiens, UniProt O95180). The assay can be described thus: human CACNA1H calcium influx blockade – cell-based, synthetic library set 1, calcium flux (AID 493022). The format is functional.
In the next assay the test system is Saccharomyces cerevisiae. The assay can be described thus: S. cerevisiae Caspase-1/ASC signal blockers IC50, NALP1 inhibitor project selectivity test (AID 488863). It is filed as functional, organism-based.
In assay [21] the target is NACHT, LRR and PYD domains-containing protein 1 (Homo sapiens, UniProt Q9C000). The assay can be described thus: NALP1 inhibitors in yeast, dose response, luminescent (AID 488860). It is filed as functional.
The target of assay [22] is Female germline-specific tumor suppressor gld-1 (Caenorhabditis elegans, UniProt Q17339). The assay can be described thus: blockers of GLD-1/TGE RNA complex formation – biochemical, fluorescence polarization, C. elegans, dose response (AID 2802).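 Further: fluorescence polarization of labeled TGE RNA bound by purified gld-1 protein.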 In general terms: Polarisation of emitted light reports the rotation of a fluorescent probe.
The next assay addresses Protein Rev (Human immunodeficiency virus type 1 group M subtype B (isolate HXB2)(HIV-1), UniProt P04618). The assay can be described thus: blockers of HIV Rev/RRE RNA complex – biochemical, fluorescence polarization, HIV-1, dose response (AID 434976). Details: species or system Human immunodeficiency virus 1.

One may read the IC50 as the point on the concentration scale where inhibition reaches its midpoint. What is called EC50 is the concentration giving half of the maximal effect. What is called CC50 is the concentration at which the toxic effect on the cells reaches its halfway point. What is called AC50 is the concentration at which the activity in the assay is half-maximal.

Sequence of Potassium voltage-gated channel subfamily KQT member 2 (O88943 whole entry, the tested form may be a part): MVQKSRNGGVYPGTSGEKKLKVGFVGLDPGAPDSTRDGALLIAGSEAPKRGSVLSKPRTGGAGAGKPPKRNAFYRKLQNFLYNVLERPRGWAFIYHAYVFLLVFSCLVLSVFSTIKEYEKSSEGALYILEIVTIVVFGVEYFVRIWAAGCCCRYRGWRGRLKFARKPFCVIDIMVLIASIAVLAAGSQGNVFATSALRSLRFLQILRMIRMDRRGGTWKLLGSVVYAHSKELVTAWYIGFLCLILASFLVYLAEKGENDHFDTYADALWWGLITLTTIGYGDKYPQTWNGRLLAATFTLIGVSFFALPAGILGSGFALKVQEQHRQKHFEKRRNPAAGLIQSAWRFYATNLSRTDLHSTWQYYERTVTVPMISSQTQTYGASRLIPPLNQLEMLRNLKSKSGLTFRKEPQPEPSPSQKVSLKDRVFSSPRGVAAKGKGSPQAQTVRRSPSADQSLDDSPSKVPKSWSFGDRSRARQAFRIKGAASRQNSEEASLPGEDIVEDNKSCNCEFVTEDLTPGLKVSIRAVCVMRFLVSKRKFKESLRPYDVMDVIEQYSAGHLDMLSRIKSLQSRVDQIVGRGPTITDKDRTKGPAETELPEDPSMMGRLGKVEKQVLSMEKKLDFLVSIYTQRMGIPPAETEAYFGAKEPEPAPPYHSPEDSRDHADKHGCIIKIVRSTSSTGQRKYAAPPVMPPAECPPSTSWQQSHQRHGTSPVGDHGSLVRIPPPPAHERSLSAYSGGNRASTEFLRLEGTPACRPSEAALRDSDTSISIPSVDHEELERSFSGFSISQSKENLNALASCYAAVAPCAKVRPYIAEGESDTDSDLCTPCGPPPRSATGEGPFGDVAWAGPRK

For the molecule `O=C(C1CCCCN1Cc1ccc(Cl)c(Cl)c1)N1CCN(c2ccc([N+](=O)[O-])cc2)CC1` (stereo not drawn), the IC50 was 4.6 µM (active) in assay [1] and 2.3 µM (active) in assay [2].

As to `CCCS(=O)(=O)N1CCN(c2ccccc2F)CC1`, the IC50 on Coagulation factor XII is > 50 µM (inactive).

As for `COc1c(OC(C)=O)c(=O)n2c3ccccc3c3ccnc1c32`, the 50% inhibitory concentration (IC50) in assay [3] is 1.58 µM (active).

Regarding `O=C(NCc1cc([N+](=O)[O-])ccc1O)c1cccnc1Sc1ccccc1Cl`, the EC50 is > 180 µM (inactive) in assay [4], > 150 µM (inactive) in assay [5], > 150 µM (inactive) in assay [6] and 0.848 µM (active) in [7]. Besides, the 50% cytotoxic concentration (CC50) in assay [8] is > 100 µM (active).

Regarding `CC(/C=C/c1ccco1)=NNC(=O)c1cccnc1`, the IC50 in [9] is 21.4 µM (active); in assay [10], 6.99 µM (active).

As to `S=C(Nc1cccnc1)Nc1cccc(Cl)c1`, the half-maximal effective concentration (EC50) in [11] is 9.33 µM (active).

For `CC(C)N1C(=O)/C(=C\c2nc(O)c3ccccc3n2)c2ccccc21`, the values for the 50% inhibitory concentration (IC50) (on Perilipin-1/ABHD5; in assay [13]) were 6.84 µM (active) and 7.59 µM (active), respectively. Also, the AC50 in assay [12] is 5.37 µM (active).

For `O=C(NNC(=O)c1ccccn1)c1cccc([N+](=O)[O-])c1`, the results for the CC50 in assay [14], in assay [15] and in [16] were > 20 µM (active), 9.98 µM (active) and 26.7 µM (active), respectively. Also, the IC50 in the assay “cells” is 10.9 µM (active).

Turning to `CC12CC3CC(C)(C1)CC(CN)(C3)C2`, the IC50 in assay [17] is > 300 µM (active).

`O=C(COc1ccc2ccccc2c1)N/N=C/c1ccc([N+](=O)[O-])o1`: the figures for the AC50 (with Trypanosoma cruzi; in assay [18]) were 0.837 µM (active) and 22.3 µM (active), respectively.

On to `COc1ccc(-n2c(Cc3cccn3C)nnc2SCC(=O)Nc2cccc(F)c2)cc1`, for which the IC50 in assay [19] is > 64 µM (inactive).

Turning to `CC(Oc1ccccc1)C(=O)Nc1nnc(-c2ccc(F)cc2)o1` (stereo not drawn), the EC50 in assay [20] was 10 µM (active).

As for `Cc1ccc(NC(=O)CNc2ccc(OC(C)C)cc2)cc1`, the half-maximal inhibitory concentration (IC50) in the assay on Saccharomyces cerevisiae is 42.6 µM (active); in assay [21] it was 22.6 µM (active).

With `C=CCc1cccc(/C=N/n2c(C)nnc2C)c1O`, the results for the IC50 (in [22]; on Protein Rev) were 8.19 µM (active) and > 8.39 µM (active), respectively.
